Test results taken from EP0428132A1, “Pradimicin derivatives” (Bristol-Myers Squibb Company, priority 1989, dated 1991).
Converted amounts (≈) assume the structure as drawn.

Assays:
[1] = system: Candida albicans A9540; assay: Intravenous Candida albicans infection mouse model, Table 2 part A; assay type: in vivo; details: drug administered once just after infection, 20 days after fungal challenge, method of Litchfield and Wilcoxon, male ICR mice
Method: Several compounds were also evaluated in an intravenous Candida albicans […] infection mouse model. The test organism was suspended in saline approximately 10 times the median lethal dose of the fungus (10⁶ cells/mouse) were used to infect intravenously male ICR mice weighing 20 to 24 g. Groups of five mice at each dose level were given the test compounds intravenously or intramuscularly. The 50% protective dose (PD₅₀) was calculated from survival rates recorded 20 or 21 days after the fungal challenge. Control animals died between 7 to 15 days.

[2] = system: FA21436; assay: In vitro antifungal activity, serial agar dilution method (Table 1); assay type: cell-based, Asoergukkys flavus; details: for MIC: 40 h, pH 7, read-out: MIC, Asoergukkys flavus FA21436; for Partial Inhibition, Asoergukkys flavus FA21436: value in parentheses = Partial Inhibition, Sabouraud dextrose agar (pH 7.0), 28°C for 40 hours
Method: (§1) The inoculum size was adjusted to 10⁶ cells/ml, and a volume of approximately 0.003 ml of fungal suspension was applied to the surface of the antibiotic containing agar plates with a multiinoculator. After incubation, the lowest concentration of antibiotic causing virtually complete inhibition of fungal growth was determined as the minimum inhibitory concentration (MIC). Table 1. [table]

[3] = system: Trichophyton mentagrophytes #4329; assay: as above; assay type: cell-based; details: Trichophyton mentagrophytes; Sabouraud dextrose agar (pH 7.0); 28°C for 40 hours
Method: as §1

[4] = system: Sprotricosis schenckii IFO8158; assay: as above; assay type: cell-based; details: for MIC: 40 h, pH 7, read-out: MIC, Sprotricosis schenckii IFO8158; for Partial Inhibition, Sprotricosis schenckii IFO8158: value in parentheses = Partial Inhibition, Sabouraud dextrose agar (pH 7.0), 28°C for 40 hours
Method: as §1

[5] = system: Trichophyton mentagrophytes D155; assay: as above; assay type: cell-based; details: Trichophyton mentagrophytes, D155; Sabouraud dextrose agar (pH 7.0); 28°C for 40 hours
Method: as §1

[6] = system: Aspergillus fumigatus IAM2530; assay: as above; assay type: cell-based; details: Sabouraud dextrose agar (pH 7.0), 28°C for 40 hours; for MIC: Aspergillus fumigatus, IAM2530
Method: as §1

[7] = system: Blastomyces dermatidis D40; assay: as above; assay type: cell-based; details: for MIC: Blastomyces, D40, 40 h, pH 7, read-out: MIC, Blastomyces dermatidis D40; for Partial Inhibition, Blastomyces dermatidis D40: value in parentheses = Partial Inhibition, Sabouraud dextrose agar (pH 7.0), 28°C for 40 hours
Method: as §1

[8] = system: Fusarium moniliforme A2284; assay: as above; assay type: cell-based; details: Fusarium verticillioides, A2284; Sabouraud dextrose agar (pH 7.0); 28°C for 40 hours
Method: as §1

[9] = system: Aspergillus fumigatus IAM2034; assay: as above; assay type: cell-based; details: Sabouraud dextrose agar (pH 7.0), 28°C for 40 hours; for MIC: Aspergillus fumigatus, IAM2034; for Partial Inhibition, Aspergillus fumigatus IAM2034: value in parentheses = Partial Inhibition
Method: as §1

[10] = system: Mucor spinosus IFO5317; assay: as above; assay type: cell-based; details: Sabouraud dextrose agar (pH 7.0), 28°C for 40 hours; for MIC: Mucor spinosus, IFO5317; for Partial Inhibition, Mucor spinosus IFO5317: value in parentheses = Partial Inhibition
Method: as §1

[11] = system: Candida albicans IAM4888; assay: as above; assay type: cell-based; details: Candida albicans, IAM4888; Sabouraud dextrose agar (pH 7.0); 28°C for 40 hours
Method: as §1

[12] = system: Cryptococcus neoformans D49; assay: as above; assay type: cell-based; details: Cryptococcus neoformans, D49, 40 h, pH 7, read-out: MIC, Cryptococcus neoformans D49
Method: as §1

[13] = system: Candida albicans A9540; assay: as above; assay type: cell-based; details: Candida albicans, A9540; Sabouraud dextrose agar (pH 7.0); 28°C for 40 hours
Method: as §1

[14] = system: Petriellidium boydii IFO8078; assay: as above; assay type: cell-based; details: Scedosporium boydii, IFO8078; Sabouraud dextrose agar (pH 7.0); 28°C for 40 hours
Method: as §1

[15] = system: Cryptococcus neoformans IAM4514; assay: as above; assay type: cell-based; details: Cryptococcus neoformans, IAM4514; Sabouraud dextrose agar (pH 7.0); 28°C for 40 hours
Method: as §1

[16] = physchem
Method: The sample (3 ∼ 3.5 mg) was suspended in 1 ml of PBS(-) or PBS(+), sonicated at 30°C for 10 minutes, and allowed to stand at room temperature for 2 hours. The resulting solution or suspension was centrifuged at 12,000 rpm for 10 minutes. The supernatant (pH 6.7 ∼ 7.2) was diluted (5 x or 50 x) with 0.01N NaOH (pH ca. 11.5) and its UV absorption at 500 nm was measured. The solubility was assessed by the absorption coefficient value with reference to the standard. […] The zwitterionic form sample was used for the solubility test as it is. The hydrochloride salt sample (3 mg) was dissolved in 3 ml of distilled water and neutralized with 0.01N NaOH, and then the solution was lyophilized to give a test sample.
Dulbecco's phosphate buffered saline (PBS) solution was used. Preparation of PBS(-) solution: One PBS(-) tablet (Flow Laboratories, Cat. No. 28-103-05) was dissolved in 100 ml distilled water, and the solution was autoclaved for 10 minutes at 115°C. This solution contains 0.2 g/L of KCl, 0.2 g/L of KH₂PO₄, 8 g/L of NaCl, and 1.15 g/L of Na₂HPO₄. Preparation of PBS(+) solution: One PBS(-) tablet was dissolved in 80 ml distilled water; 10 mg of CaCl₂ was dissolved in 10 ml distilled water; 10 mg of MgCl₂, 6H₂O was dissolved in 10 ml distilled water. These solutions were separately autoclaved, as described above, and mixed when cooled.

SMILES | PD₅₀ [1] | MIC [2] | MIC [3] | MIC [4] | Partial Inhibition, Sprotricosis schenckii IFO8158 [4] | MIC [5] | MIC [6] | MIC [7] | Partial Inhibition, Blastomyces dermatidis D40 [7] | MIC [8] | MIC [9] | Partial Inhibition, Aspergillus fumigatus IAM2034 [9] | MIC [10] | Partial Inhibition, Mucor spinosus IFO5317 [10] | MIC [11] | MIC [12] | MIC [13] | MIC [14] | MIC [15] | solubility at 2 h ([16]; Method II (-): PBS(-)) | also measured
COc1cc(O)c2c(c1)C(=O)c1c(cc3c(c1O)-c1c(cc(C)c(C(=O)N[C@H](C)C(=O)O)c1O)[C@H](O[C@@H]1O[C@H](C)[C@H](N(C)CC(=O)O)[C@H](O[C@@H]4OC[C@@H](O)[C@H](O)[C@H]4O)[C@H]1O)[C@H]3O)C2=O [Ex. 1, N-(carboxymethyl) pradimicin A] | 45 mg/kg | > 100 µg/mL | > 100 µg/mL | > 100 µg/mL | 50.0 µg/mL | > 100 µg/mL | 100 µg/mL (≈ 111 µM) | > 100 µg/mL | 50.0 µg/mL | > 100 µg/mL | > 100 µg/mL | 50.0 µg/mL | > 100 µg/mL | >100.0 (100.0) µg/ml | 50 µg/mL (≈ 55.6 µM) | 25 µg/mL (≈ 27.8 µM) | 50 µg/mL (≈ 55.6 µM) | > 100 µg/mL | 12.5 µg/mL (≈ 13.9 µM) | > 30 mg/mL | solubility at 2 h ([16]; Method II (+): PBS(+)): > 31 mg/mL
COc1cc(O)c2c(c1)C(=O)c1c(cc3c(c1O)-c1c(cc(C)c(C(=O)N[C@H](C)C(=O)O)c1O)[C@H](O[C@@H]1O[C@H](C)[C@H](N(C)CC(N)=O)[C@H](O[C@@H]4OC[C@@H](O)[C@H](O)[C@H]4O)[C@H]1O)[C@H]3O)C2=O [Ex. 2, N-(carbamoylmethyl) pradimicin A] | 29 mg/kg | > 100 µg/mL | > 100 µg/mL | 25 µg/mL (≈ 27.8 µM) | 12.5 µg/mL | > 100 µg/mL | 12.5 µg/mL (≈ 13.9 µM) | 25 µg/mL (≈ 27.8 µM) | 12.5 µg/mL | > 100 µg/mL | > 100 µg/mL | 50.0 µg/mL | > 100 µg/mL | >100.0 (100.0) µg/ml | 25 µg/mL (≈ 27.8 µM) | 12.5 µg/mL (≈ 13.9 µM) | 50 µg/mL (≈ 55.7 µM) | > 100 µg/mL | 3.1 µg/mL (≈ 3.45 µM) | 11 mg/mL (≈ 12300 µM) | Partial Inhibition, Asoergukkys flavus FA21436 [2]: 50.0 µg/mL
CCOC(=O)CN(C)[C@@H]1[C@H](O[C@@H]2OC[C@@H](O)[C@H](O)[C@H]2O)[C@@H](O)[C@H](O[C@H]2c3cc(C)c(C(=O)N[C@H](C)C(=O)O)c(O)c3-c3c(cc4c(c3O)C(=O)c3cc(OC)cc(O)c3C4=O)[C@@H]2O)O[C@@H]1C [Ex. 3, N-(ethoxycarbonylmethyl) pradimicin A] | 18 mg/kg | > 100 µg/mL | > 100 µg/mL | 25 µg/mL (≈ 27 µM) | 12.5 µg/mL | > 100 µg/mL | 50 µg/mL (≈ 53.9 µM) | 100 µg/mL (≈ 108 µM) | 12.5 µg/mL | > 100 µg/mL | > 100 µg/mL | >100.0 (100.0) µg/ml | > 100 µg/mL | >100.0 (100.0) µg/ml | 25 µg/mL (≈ 27 µM) | 6.3 µg/mL (≈ 6.8 µM) | 50 µg/mL (≈ 53.9 µM) | > 100 µg/mL | 6.3 µg/mL (≈ 6.8 µM) | 11 mg/mL (≈ 11900 µM) | Partial Inhibition, Asoergukkys flavus FA21436 [2]: 50.0 µg/mL; Partial Inhibition, Aspergillus fumigatus IAM2530 ([6]; value in parentheses = Partial Inhibition): 25.0 µg/mL
